{"source": "patent US4626283A", "about": "“Corrosion and marine growth inhibiting compositions” (Engelhard Corporation, priority 1985, dated 1986)", "key": {"[1]": {"settings": "water"}, "[2]": {"assay": "Salt spray test, alkyd formulations (Example VI, FIG. 3)", "settings": "alkyd formulation, ASTM B117-73, in words", "method": "One coat of paint was applied using a Henry K. Gardner Laboratory draw-down, with either a 6 mil or 8 mil draw-down blade. The draw-down speed was 1 inch per second. Such coat of paint was allowed to cure for two weeks under ambient conditions, in the case of both alkyd and latex paints. The dried coating thickness was measured with Elcometer Coating thickness gauge, Model #150/-FNIE. Acceptable thicknesses of the cured film were 2.5-3.5 mils.\nStormer viscosity (ASTM D562-55) for all alkyd paints was greater than 90, and for all latex paints was greater than 80."}, "[3]": {"assay": "Acute oral toxicity", "assay_type": "in vivo", "settings": "5 g/kg in corn oil"}, "[4]": {"assay": "Draize eye irritation", "assay_type": "in vivo", "settings": "100 mg; for Eye irritation rating: in words"}, "[5]": {"assay": "Electrochemical testing (Tafel Plot) of corrosion current and corrosion potential"}, "[6]": {"assay": "Primary skin irritation", "assay_type": "in vivo", "settings": "0.5 g in saline paste; for Skin irritation rating: in words"}, "[7]": {"assay": "Salt spray test, alkyd formulations (Example V, FIG. 1)"}, "[8]": {"assay_type": "physicochemical", "settings": "simulated rain solution saturated with the pigment; electrolyte pH about 4.2"}, "[9]": {"settings": "overall conclusion in words"}, "[10]": {"settings": "Tafel Plot, simulated acid rain saturated with pigment, SAE-1020 steel, 5.16 square centimeters"}, "[11]": {"settings": "against saturated calomel electrode, simulated acid rain saturated with pigment"}}, "note": "Where “and” joins values, the source holds several entries; their conditions need not be identical. Identical values can stand only once. Like-named read-outs stand apart in the source and are kept apart here.", "data": [{"compound": "NCCN.O=C([O-])CCCC(=O)[O-].[Zn+2]", "note": "[Compound 2, Zinc Glutarate Ethylenediamine]", "values": [{"measurement": "Solubility", "setting": "[1]", "result": ".16"}, {"measurement": "Solubility description", "setting": "[1]", "result": "SS (key: PINS: practically insoluble (<.1 g/100cc H2 O); SS: slightly soluble (.1 to 1 g/100cc H2 O); MS: moderately soluble)"}]}, {"compound": "NCCN.O=C([O-])CCCCC(=O)[O-].[Zn+2]", "note": "[Compound 3, Zinc Adipate Ethylenediamine]", "values": [{"measurement": "Salt spray durability, comparison", "setting": "[2]", "result": "superior to \"Zinc Yellow\" (zinc chromate) in salt spray durability"}, {"measurement": "mortality", "setting": "[3]; in vivo, 5000 mg/kg", "result": 0, "unit": "%"}, {"measurement": "Eye irritation score", "setting": "[4]", "result": 19.0}, {"measurement": "Eye irritation rating", "setting": "[4]", "result": "moderately-irritating"}, {"measurement": "Corrosion current (Icorr)", "setting": "[5]; [10]", "result": 78, "unit": "microamps"}, {"measurement": "Skin irritation score", "setting": "[6]", "result": 0.42}, {"measurement": "Skin irritation rating", "setting": "[6]", "result": "minimally irritating"}]}, {"compound": "CC(N)CN.O=C([O-])CCCCC(=O)[O-].[Zn+2]", "note": "[Compound 4, Zinc Adipate Propylenediamine]", "values": [{"measurement": "Salt spray durability, comparison", "setting": "[2]", "result": "superior to \"Zinc Yellow\" (zinc chromate) in salt spray durability"}]}, {"compound": "NCCN.O=C([O-])CCCCCCCC(=O)[O-].[Zn+2]", "note": "[Compound 5, Zinc Azelate Ethylenediamine]", "values": [{"measurement": "Effect of kaolin on salt spray performance", "setting": "[7]; alkyd formulation, combination with kaolin, in words", "result": "anomolously reduced the performance"}, {"measurement": "Solubility", "setting": "[1]", "result": ".21"}, {"measurement": "Solubility description", "setting": "[1]", "result": "SS (key: PINS: practically insoluble (<.1 g/100cc H2 O); SS: slightly soluble (.1 to 1 g/100cc H2 O); MS: moderately soluble)"}, {"measurement": "Corrosion current (Icorr)", "setting": "[5]; [10]", "result": 82, "unit": "microamps"}, {"measurement": "Corrosion potential (Ecorr)", "setting": "[5]; [11]", "result": -667, "unit": "millovolts"}]}, {"compound": "NCCN.O=C([O-])CCCCCCCCC(=O)[O-].[Zn+2]", "note": "[Compound 6, Zinc Sebacate Ethylenediamine]", "values": [{"measurement": "Eye irritation score", "setting": "[4]", "result": 37.2}, {"measurement": "Eye irritation rating", "setting": "[4]", "result": "severely irritating"}, {"measurement": "Corrosion current (Icorr)", "setting": "[5]", "result": "170 microamps and > 100 microamps"}, {"measurement": "Corrosion potential (Ecorr)", "setting": "[5]", "result": -462, "unit": "millovolts"}, {"measurement": "Skin irritation score", "setting": "[6]", "result": 0.13}, {"measurement": "Skin irritation rating", "setting": "[6]", "result": "minimally irritating"}]}, {"compound": "O=C([O-])CCCCCCCCCCC(=O)[O-].OCCN(CCO)CCO.[Zn+2]", "note": "[Compound 10, Zinc Dibasate Triethanolamine]", "values": [{"measurement": "Salt spray durability, comparison", "setting": "[2]", "result": "superior to \"Zinc Yellow\" (zinc chromate) in salt spray durability"}, {"measurement": "Corrosion current (Icorr)", "setting": "[5]", "result": 93, "unit": "microamps"}, {"measurement": "Corrosion potential (Ecorr)", "setting": "[5]", "result": -580, "unit": "millovolts"}]}, {"compound": "NCCN.O=C([O-])CCCCCCCCCCC(=O)[O-].[Zn+2]", "note": "[Compound 11, Zinc Dodecanedioate Ethylenediamine]", "values": [{"measurement": "Salt spray durability, comparison", "setting": "[2]", "result": "superior to \"Zinc Yellow\" (zinc chromate) in salt spray durability"}, {"measurement": "Solubility", "setting": "[1]", "result": ".015"}, {"measurement": "Solubility description", "setting": "[1]", "result": "PINS (key: PINS: practically insoluble (<.1 g/100cc H2 O); SS: slightly soluble (.1 to 1 g/100cc H2 O); MS: moderately soluble)"}, {"measurement": "Corrosion current (Icorr)", "setting": "[5]; [10]", "result": "130 microamps and > 100 microamps"}]}, {"compound": "CCNCC.O=C([O-])CCCCCCCCCCC(=O)[O-].[Zn+2]", "note": "[Compound 12, Zinc Dodecanedioate Diethylamine]", "values": [{"measurement": "Corrosion current (Icorr)", "setting": "[5]", "result": "197 microamps and > 100 microamps"}]}, {"compound": "NCCN.O=C([O-])c1ccccc1C(=O)[O-].[Zn+2]", "note": "[Compound 17, Zinc Phthalate Ethylenediamine]", "values": [{"measurement": "Solubility", "setting": "[1]", "result": ".02"}, {"measurement": "Solubility description", "setting": "[1]", "result": "PINS (key: PINS: practically insoluble (<.1 g/100cc H2 O); SS: slightly soluble (.1 to 1 g/100cc H2 O); MS: moderately soluble)"}, {"measurement": "Corrosion current (Icorr)", "setting": "[5]", "result": 83, "unit": "microamps"}, {"measurement": "Skin irritation score", "setting": "[6]", "result": 0.00}, {"measurement": "Skin irritation rating", "setting": "[6]", "result": "non-irritating"}]}, {"compound": "NCCN.O=C([O-])c1cccc(C(=O)[O-])c1.[Zn+2]", "note": "[Compound 18, Zinc Isophthalate Ethylenediamine]", "values": [{"measurement": "Salt spray durability, comparison", "setting": "[2]", "result": "superior to \"Zinc Yellow\" (zinc chromate) in salt spray durability"}, {"measurement": "Solubility", "setting": "[1]", "result": 1.13}]}, {"compound": "NCCN.O=C([O-])c1ccc(C(=O)[O-])cc1.[Zn+2]", "note": "[Compound 19, Zinc Terephthalate Ethylenediamine]", "values": [{"measurement": "Solubility", "setting": "[1]", "result": ".66"}, {"measurement": "Solubility description", "setting": "[1]", "result": "SS (key: PINS: practically insoluble (<.1 g/100cc H2 O); SS: slightly soluble (.1 to 1 g/100cc H2 O); MS: moderately soluble)"}]}, {"compound": "Zinc Dibasate Diethylamine [Compound 9]", "values": [{"measurement": "Oral acute toxicity, mortality", "setting": "[3]", "result": 0, "unit": "%"}, {"measurement": "Eye irritation score", "setting": "[4]", "result": 5.5}, {"measurement": "Eye irritation rating", "setting": "[4]", "result": "mildly irritating"}, {"measurement": "Corrosion current (Icorr)", "setting": "[5]", "result": 30, "unit": "microamps"}, {"measurement": "Corrosion current (Icorr), second test", "setting": "[5]", "result": "177 microamps and > 100 microamps"}, {"measurement": "Corrosion potential (Ecorr)", "setting": "[5]", "result": -570, "unit": "millovolts"}]}, {"compound": "Zinc Dibasate Dimethylamine [Compound 21]", "values": [{"measurement": "Corrosion current (Icorr)", "setting": "[5]", "result": 82, "unit": "microamps"}, {"measurement": "Corrosion potential (Ecorr)", "setting": "[5]", "result": -610, "unit": "millovolts"}]}, {"compound": "Zinc Dibasate Piperidine [Compound 24]", "values": [{"measurement": "Corrosion current (Icorr)", "setting": "[5]", "result": 40, "unit": "microamps"}, {"measurement": "Corrosion potential (Ecorr)", "setting": "[5]", "result": -610, "unit": "millovolts"}]}, {"compound": "Zinc Dibasate Propylenediamine [Compound 8]", "values": [{"measurement": "Solubility", "setting": "[1]", "result": ".16"}, {"measurement": "Solubility description", "setting": "[1]", "result": "SS (key: PINS: practically insoluble (<.1 g/100cc H2 O); SS: slightly soluble (.1 to 1 g/100cc H2 O); MS: moderately soluble)"}]}, {"compound": "Zinc Dibasate Pyridine [Compound 23]", "values": [{"measurement": "pH", "setting": "[8]", "result": 7.0}, {"measurement": "Corrosion current (Icorr)", "setting": "[5]; [10]", "result": 60, "unit": "microamps"}, {"measurement": "Corrosion potential (Ecorr)", "setting": "[5]; [11]", "result": -550, "unit": "millovolts"}]}, {"compound": "Zinc Dibasate-1,2-Diaminopropane [8^(3)]", "values": [{"measurement": "pH", "setting": "[8]", "result": 7.55}, {"measurement": "Corrosion current (Icorr)", "setting": "[5]; [10]", "result": 90, "unit": "microamps"}, {"measurement": "Corrosion potential (Ecorr)", "setting": "[5]; [11]", "result": -570, "unit": "millovolts"}]}, {"compound": "Zinc Quinizarinate Ethylenediamine [Compound 22]", "values": [{"measurement": "Corrosion current (Icorr)", "setting": "[5]; [10]", "result": 84, "unit": "microamps"}, {"measurement": "Corrosion potential (Ecorr)", "setting": "[5]; [11]", "result": -570, "unit": "millovolts"}]}, {"compound": "Zinc Sulfonyldiphenolate Ethylenediamine [Compound 15]", "values": [{"measurement": "Eye irritation score", "setting": "[4]", "result": 31.0}, {"measurement": "Eye irritation rating", "setting": "[4]", "result": "severely irritating"}, {"measurement": "Corrosion current (Icorr)", "setting": "[5]", "result": "170 microamps and > 100 microamps"}, {"measurement": "Corrosion potential (Ecorr)", "setting": "[5]", "result": -592, "unit": "millovolts"}, {"measurement": "Skin irritation score", "setting": "[6]", "result": 0.08}, {"measurement": "Skin irritation rating", "setting": "[6]", "result": "non-irritating"}]}, {"compound": "Zinc Thiodiphenolate Ethylenediamine [Compound 14]", "values": [{"measurement": "Effect of kaolin on salt spray performance", "setting": "[7]", "result": "enhanced the performance"}, {"measurement": "Toxicity characteristics", "setting": "[9]", "result": "unacceptable toxicity characteristics"}, {"measurement": "Eye irritation score", "setting": "[4]", "result": 53.7}, {"measurement": "Eye irritation rating", "setting": "[4]", "result": "extremely irritating"}, {"measurement": "Corrosion current (Icorr)", "setting": "[5]", "result": 52.5, "unit": "microamps"}, {"measurement": "Corrosion potential (Ecorr)", "setting": "[5]", "result": -570, "unit": "millovolts"}]}, {"compound": "Zinc Thiodiphenolate Propylenediamine [Compound 20]", "values": [{"measurement": "Corrosion current (Icorr)", "setting": "[5]", "result": 46, "unit": "microamps"}, {"measurement": "Corrosion potential (Ecorr)", "setting": "[5]", "result": -560, "unit": "millovolts"}]}]}
